Data as given in patent US12435051B2, “Dual modulator of mGluR5 and 5-HT2A receptor, and use thereof” (Vivozon Inc., priority 2020, dated 2025).
Where two headings read alike, the source gives them in different places.

Experiments:
[1] = system: spinal nerve ligation model (neuropathic pain model); test: Confirmation of synergistic analgesic effect via dual action (spinal nerve ligation model); format: in vivo; conditions: sub-effective doses, FIG. 1
Description: The confirmation of the synergistic analgesic effect via the dual action of mGluR5 and 5-HT2AR was carried out by the use of representative mGluR5 antagonist MPEP (2-methyl-6-(phenylethynyl)pyridine) and 5-HT2AR antagonist MDL11,939 in a “spinal nerve ligation model” which is a neuropathic pain model.
In order to measure the analgesic effect of MPEP and MDL11,939, when administered alone or simultaneously together, the reversibility rate of pain relieving parameter (% reversal) was calculated according to the method of Experimental Example 4 and the results are represented in FIG. 1.

human 5-HT2AR = target: T1, human 5-HT2AR (Homo sapiens, UniProt P28223); test: HTRF-based IP1 accumulation assay (5-HT2AR antagonistic effect); format: cell-based; conditions: HEK293 cells overexpressing human 5-HT2AR; serotonin at EC80
T1 construct: expressed in transfected cells; host or cells: HEK293
T1 sequence (P28223 whole entry): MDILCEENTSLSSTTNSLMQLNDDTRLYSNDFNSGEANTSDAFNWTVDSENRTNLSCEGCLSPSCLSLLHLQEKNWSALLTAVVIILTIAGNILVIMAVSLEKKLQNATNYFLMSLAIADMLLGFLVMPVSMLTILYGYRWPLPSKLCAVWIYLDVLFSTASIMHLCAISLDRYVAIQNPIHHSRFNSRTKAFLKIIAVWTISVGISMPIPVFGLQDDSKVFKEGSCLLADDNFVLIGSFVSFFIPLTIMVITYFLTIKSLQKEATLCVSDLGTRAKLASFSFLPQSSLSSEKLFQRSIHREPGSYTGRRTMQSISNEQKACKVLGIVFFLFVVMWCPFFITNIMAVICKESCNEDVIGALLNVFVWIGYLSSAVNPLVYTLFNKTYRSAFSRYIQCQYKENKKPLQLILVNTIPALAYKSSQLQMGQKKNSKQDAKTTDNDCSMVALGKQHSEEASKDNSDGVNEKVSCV
In short: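 HEK293 cells stably overexpressing human 5-HT2AR were pre-incubated with compound (top 10 μM, serial dilutions, LiCl buffer) 10 min at room temperature, then stimulated with EC80 serotonin 30 min at 37 °C. IP1 accumulation was read by HTRF; IC50s came from activity normalized to serotonin and IP1 controls.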

[2] = system: physical (tactile) allodynia in spinal nerve ligation model; test: Analgesic efficacy experiment using animal model (Chung model, spinal nerve ligation); format: in vivo, Sprague-Dawley rats; conditions: Rattus norvegicus, po
mGluR5 = target: T2, mGluR5 (Homo sapiens, UniProt P41594); test: Fluorescence-based Ca2+ mobilization assay; format: cell-based; conditions: HEK293 cells overexpressing mGluR5; L-glutamate at EC80
T2 construct: expressed in transfected cells; host or cells: HEK293
T2 sequence (P41594 21-1212): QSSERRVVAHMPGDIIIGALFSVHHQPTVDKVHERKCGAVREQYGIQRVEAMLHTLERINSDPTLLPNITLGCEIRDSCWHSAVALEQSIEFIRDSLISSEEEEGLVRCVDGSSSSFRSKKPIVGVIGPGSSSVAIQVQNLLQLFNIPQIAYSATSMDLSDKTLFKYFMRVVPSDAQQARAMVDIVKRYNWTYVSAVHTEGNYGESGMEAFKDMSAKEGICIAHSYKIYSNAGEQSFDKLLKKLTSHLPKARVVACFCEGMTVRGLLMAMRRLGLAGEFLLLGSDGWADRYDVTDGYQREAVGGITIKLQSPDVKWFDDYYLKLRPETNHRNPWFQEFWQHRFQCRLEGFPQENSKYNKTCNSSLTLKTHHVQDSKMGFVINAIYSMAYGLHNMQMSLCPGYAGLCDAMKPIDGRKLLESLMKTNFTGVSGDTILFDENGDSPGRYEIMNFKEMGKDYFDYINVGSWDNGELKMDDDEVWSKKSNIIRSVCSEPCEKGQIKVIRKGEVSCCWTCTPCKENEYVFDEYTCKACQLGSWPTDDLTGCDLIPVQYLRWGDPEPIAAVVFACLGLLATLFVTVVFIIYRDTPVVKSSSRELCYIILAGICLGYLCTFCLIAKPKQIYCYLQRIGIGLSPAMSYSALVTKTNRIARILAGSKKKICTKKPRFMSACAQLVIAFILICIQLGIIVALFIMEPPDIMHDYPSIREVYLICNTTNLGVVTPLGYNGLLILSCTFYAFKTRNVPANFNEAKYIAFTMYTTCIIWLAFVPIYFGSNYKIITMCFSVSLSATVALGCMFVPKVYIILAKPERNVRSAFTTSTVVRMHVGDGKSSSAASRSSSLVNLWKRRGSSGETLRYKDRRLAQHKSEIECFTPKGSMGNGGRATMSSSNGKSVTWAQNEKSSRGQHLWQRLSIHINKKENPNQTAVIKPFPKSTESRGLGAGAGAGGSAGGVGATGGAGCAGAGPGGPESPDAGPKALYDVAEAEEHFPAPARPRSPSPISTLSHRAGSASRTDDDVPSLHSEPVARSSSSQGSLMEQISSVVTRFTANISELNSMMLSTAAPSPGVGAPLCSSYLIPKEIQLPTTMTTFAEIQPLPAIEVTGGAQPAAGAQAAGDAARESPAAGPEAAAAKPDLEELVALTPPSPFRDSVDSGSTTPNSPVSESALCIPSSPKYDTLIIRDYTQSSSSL
In short: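 HEK293 cells stably overexpressing mGluR5, dye-loaded 60 min at 37 °C, then preincubated with compound 30 min at room temperature in the dark. Ca2+ response to L-glutamate at EC80 read on FLIPR for 2 min. Signal normalised to glutamate (100%) and vehicle (0%); IC50 from % inhibition.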

[3] = 1 h, read-out: % reversal (1 h)
[4] = 2 h, read-out: % reversal (2 h)

SMILES	analgesic effect (% reversal), administered alone [1]	IC50 (human 5-HT2AR) [nM]	inhibition in vivo at 50 mg/kg [2, 3] [%]	inhibition in vivo at 50 mg/kg [2, 4] [%]	IC50 (mGluR5) [nM]
Cc1cccc(C#Cc2ccccc2)n1 [MPEP, 2-methyl-6-(phenylethynyl)pyridine]	did not show a significant analgesic effect				
OC(c1ccccc1)C1CCN(CCc2ccccc2)CC1 (centres unmarked) [MDL11,939]	did not show a significant analgesic effect				
O=C(NC[C@H]1CCOC1)c1ccc(C#Cc2ccccc2F)cc1 [Example 69, (R)-4-((2-fluorophenyl)ethynyl)-N-((tetrahydrofuran-3-yl)methyl)benzamide]		500 to 1000	110	110	100 to 500
O=C(NCC1CC(F)(F)C1)c1ccc(C#Cc2ccccc2F)cc1 [Example 56, N-((3,3-difluorocyclobutyl)methyl)-4-((2-fluorophenyl)ethynyl)benzamide]		100 to 500	47.4	43.6	< 100
COC1(CNC(=O)c2ccc(C#Cc3ccccc3F)cc2)CCCCC1 [Example 65, 4-((2-fluorophenyl)ethynyl)-N-((1-methoxycyclohexyl)methyl)benzamide]		500 to 1000	34	80.8	< 100
